Reference: the Bradley open melting point set (2014)
Values joined by “and” are separate entries in the source; they are usually repeats but may differ in a detail not shown here. Identical values can stand only once.

| melting point | Compound |
| --- | --- |
| 78 °C | CC(=O)Oc1ccc([N+](=O)[O-])cc1 [p-nitrophenyl_acetate] |
| 202 °C | COc1ccc(B(O)O)c(Cl)c1 [2-chloro-4-methoxybenzeneboronic acid] |
| 148 °C | O=C(O)c1ccccc1Br [2-bromobenzoic acid] |
| 230 °C | O=C(O)c1ccccc1C(=O)O [Phthalic Acid] |
| 165 °C | O=C(O)[C@@]1(O)CC(O)[C@H](O)[C@H](O)C1 (stereo partly drawn) [D-quinic acid] |
| 5 °C | CO[Si](OC)(OC)OC [tetramethoxysilane] |
| 196 °C | O=C(O)CN1C(=O)c2ccccc2C1=O [N-phthaloylglycine] |
| 231 °C | Cc1nccn1CC1CCc2c(c3ccccc3n2C)C1=O (stereo not given) [ondansetron] |
| 162 °C | O=C(NC1CCCCC1)c1ccccc1 [N-cyclohexylbenzamide] |
| 169 °C | CC[C@H](C)[C@H](N)C(=O)O [L-Isoleucine] |
| 161 °C | O=C(O)/C(=C/c1cccc2ccccc12)c1ccccc1 [(2E)-3-naphthalen-1-yl-2-phenylprop-2-enoic acid] |
| -94.9 °C | CCc1ccccc1 [Ethylbenzene] |
| -53 °C | CCCCCCCCC [Nonane] |
| 141 °C | C#CC1(O)CCC2C3CCc4cc(O)ccc4C3CCC21C (stereo not given) [ethinylestradiol] |
| 253 °C | O=C(O)c1ccc(Br)cc1 [4-Bromobenzoic acid] |
| 283 °C | O=c1[nH]cc(F)c(=O)[nH]1 [5-fluorouracil] |
| -140 °C | C/C=C/CC [trans-2-pentene] |
| 182 °C | Oc1ccc2cccc(O)c2c1 [1,7-dihydroxynaphthalene] |
| 142 °C | COC(=O)c1ccc(C(=O)OC)cc1 [dimethyl terephthalate] |
| -4 °C | C=CCc1ccc(OC)c(OC)c1 [4-Allyl-1,2-dimethoxybenzene] |
| 34 °C | OC/C=C/c1ccccc1 [cinnamyl alcohol] |
| 76 °C | Cc1ccc([N+](=O)[O-])cc1Br [2-bromo-4-nitrotoluene] |
| -50 °C | CCOC(=O)CC(=O)OCC [Diethyl malonate] |
| 15 °C | C1CCCCCCC1 [cyclooctane] |
| 7.5 °C | Cc1ccc(Cl)cc1 [1-Chloro-4-methylbenzene] |
| 87 °C | CC(C)(C)OC(=O)N[C@H](Cc1ccccc1)C(=O)O [N-boc-D-phenylalanine] |
| 152 °C | [O-][P+](c1ccccc1)(c1ccccc1)C1C=C(c2ccccc2)C=C(c2ccccc2)O1 (stereo not given) [(4,6-diphenyl-2H-pyran-2-yl)(diphenyl)phosphane oxide] |

| melting point | Compound |
| --- | --- |
| -70 °C | CCCCC(CC)COP(=O)(OCC(CC)CCCC)OCC(CC)CCCC (stereo not given) [Tris(2-ethylhexyl) phosphate] |
| -48 °C | C=C(C)C(=O)OC [methyl methacrylate] |
| 81 °C | Cc1ccc(O)c2c1CCC2 [7-methyl-4-indanol] |
| 96 °C | Nc1ccc(N)nc1 [2,5-diaminopyridine] |
| 163 °C | Cc1ccccc1CNC(=S)Nc1ccccc1 [1-(2-methylbenzyl)-3-phenylthiourea] |
| 100 °C | O=[N+]([O-])c1ccccc1C=NO [2-nitrobenzaldoxime] |
| 119 °C | Nc1cc([N+](=O)[O-])ccc1Cl [2-chloro-5-nitroaniline] |
| 243 °C | CC(N1CCOCC1)S(=O)(=O)O (stereo not given) [1-(Morpholin-4-yl)ethanesulfonic acid] |
| -72.5 °C | C=Cc1ccc(C)cc1 [1-Methyl-4-vinylbenzene] |
| 12 °C | CC(=O)c1cc(Cl)ccc1Cl [2',5'-dichloroacetophenone] |
| 88 °C | Cc1ccc(S(=O)(=O)NC2CCCCC2)cc1 [N-cyclohexyl-p-toluenesulfonamide] |
| -50 °C | C#CCCCCCCC [1-nonyne] |
| 75 °C | Nc1ccc(CO)cc1 [p-amino_benzyl_alcohol] |
| 34 °C | COC(=O)c1ccc(C)cc1 [methyl p-toluate] |
| -109 °C | CC(C)C(C)C(C)C [2,3,4-trimethylpentane] |
| 134 °C | N=C(NCCCCCCNC(=N)NC(=N)Nc1ccc(Cl)cc1)NC(=N)Nc1ccc(Cl)cc1 [Chlorhexidine] |
| -30 °C and -29 °C | Nc1ccccc1C(F)(F)F [2-(trifluoromethyl)aniline] |
| 137 °C | CCOC(=O)C1=C(C)C(C(=O)OCC)N=C1C (stereo not given) [2,4-Dimethyl-3,5-dicarbethoxypyrrole] |
| 128 °C | COc1cc(/C=C/C(=O)c2ccccc2O)ccc1O [2',4-dihydroxy-3-methoxychalcone] |
| 147 °C | O=C(O)CCc1ccc(B(O)O)cc1 [4-(2-carboxyethyl)benzeneboronic acid] |
| 40 °C | CCN(CC)c1ccc(C=O)cc1 [4-diethylaminobenzaldehyde] |
| -14 °C | CCCCCCCCCCc1ccccc1 [Decylbenzene] |
| 22 °C | CCCCCCCCCCCCCCCCC [heptadecane] |
| 113 °C | c1cc(-c2ccncc2)ccn1 [4,4'-bipyridine] |
| 144 °C | NC(=O)NO [Hydroxyurea] |
| -58 °C | COCCOC [1,2-dimethyloxyethane] |
| 2 °C | c1ccc2scnc2c1 [1,3-Benzothiazole] |

| melting point | Compound |
| --- | --- |
| 150 °C | Nc1ccc(C(=O)O)c(O)c1 [p-aminosalicylic acid] |
| 168 °C | Cc1c(C(=O)O)cnn1-c1ccccc1 [OSM-S-24] |
| -129 °C | CC(C)C(C)C [2,3-dimethylbutane] |
| 110 °C | CS(C)(=O)=O [dimethyl sulfone] |
| 137 °C | CC(C)(C)N1CCNC1=O [1-tert-butyl-2-imidazolidinone] |
| 198 °C | CCCN(CCC)S(=O)(=O)c1ccc(C(=O)O)cc1 [probenecid] |
| 105 °C | Oc1ccccc1O [catechol] |
| 41 °C | Oc1cccc(I)c1 [3-iodophenol] |
| 130 °C | CC12CCC=C1C1CCC3CC(O)CCC3(C)C1CC2 (stereo not given) [androst-14-en-3-ol] |
| 143 °C | O=C1OC(c2ccccc2)=NC1=Cc1ccc(-c2ccccc2)o1 [2-Phenyl-4-(5-phenyl-furan-2-ylmethylene)-4H-oxazol-5-one] |
| 238 °C (2×) and 235 °C (2×) | Cn1c(=O)c2c(ncn2C)n(C)c1=O [caffeine] |
| 24 °C | C=Cc1ccc(N)cc1 [4-aminostyrene] |
| 244 °C and 245 °C | O=C(/C=C/c1ccc2ccccc2c1)/C=C/c1ccc2ccccc2c1 [(1E,4E)-1,5-Di(2-naphthyl)-1,4-pentadien-3-one] |
| 167 °C | O=C(O)c1ccc2c(c1)C(=O)OC2=O [1,2,4-benzenetricarboxylic anhydride] |
| 46 °C | Brc1ccc2sccc2c1 [5-bromobenzo[b]thiophene] |
| 109 °C | CCC(Br)(CC)C(=O)NC(=O)NC(C)=O [acecarbromal] |
| 129 °C | COc1ccc(B(O)O)c(OC)n1 [2,6-dimethoxypyridine-3-boronic acid] |
| 116 °C | CCCC(N)=O [butyramide] |
| 107 °C | COc1ccc(C(O)C(=O)O)cc1 (stereo not given) [4-methoxymandelic acid] |
| 80 °C | CC(N)=O [acetamide] |
| 83 °C | O=[N+]([O-])c1c(O)cccc1O [2-nitroresorcinol] |
| 164 °C and 168 °C | Cc1c(C)c(C)c(C)c(C)c1C [hexamethylbenzene] |
| 46 °C | O=Cc1ccc(Cl)cc1 [p-chlorobenzaldehyde] |
| 106 °C | CSCC[C@H](NC(C)=O)C(=O)O [N-Acetylmethionine] |
| -23 °C | C=C(C)c1ccccc1 [2-phenyl-1-propene] |
| 164 °C | O=C(O)c1c(Cl)cccc1[N+](=O)[O-] [2-chloro-6-nitrobenzoic acid] |

| Compound | melting point |
| --- | --- |
| CC1(C)C(=O)OOC1=O [4,4-dimethyl-1,2-dioxolane-3,5-dione] | 45 °C |
| CCCCC#N [valeronitrile] | -96 °C |
| NC(=O)Oc1ccccc1 [phenyl carbamate] | 151 °C |
| c1ccc2c(c1)Cc1cc3ccccc3cc1-2 [2,3-Benzofluorene Benzo[b]fluorene] | 210 °C |
| N[C@H](CO)Cc1ccccc1 [L-phenylalaninol] | 92 °C |
| [C-]#[N+]c1c(C)cccc1C [2,6-dimethylphenyl isocyanide] | 74 °C |
| NC(CN(Cc1ccccc1)c1ccccc1)=NO [Cetoxime] | 107 °C |
| CCOCC [Diethyl ether] | -116 °C |
| Oc1ccccc1Cl [2-chlorophenol] | 8 °C |
| ClCCOCCCl [1-Chloro-2-(2-chloroethoxy)ethane] | -47 °C |
| C[C@]12CCC(=O)C[C@H]1CC[C@@H]1[C@@H]2CC[C@]2(C)C(=O)CC[C@@H]12 [(5beta)-Androstane-3,17-dione] | 147 °C |
| COc1ccc(C=O)cc1OC [veratraldehyde] | 44 °C |
| CC(=O)OC1CCC2C3CCC4CC(=C(C)C)CCC4(C)C3CCC12C (stereo not given) [3-(1-methylethylidene)androstan-17-yl acetate] | 108 °C |
| O=C(O)C(Cl)Cl [Dichloroacetic acid] | 9.7 °C |
| O=[N+]([O-])c1cc(I)c(O)c(I)c1 [2,6-Diiodo-4-nitrophenol] | 157 °C |
| ClC1=C(Cl)C2(Cl)C3C(Cl)C=CC3C1(Cl)C2(Cl)Cl (stereo not given) [Heptachlor] | 95 °C |
| COc1cccc(/C=C/[N+](=O)[O-])c1OC [2,3-dimethoxy-beta-nitrostyrene] | 81 °C |
| N#CCc1ccc(C#N)cc1 [p-cyano_phenylacetonitrile] | 100 °C |
| O=[N+]([O-])c1cc(Cl)ccc1O [2-Nitro-4-chlorophenol] | 89 °C |
| CCCCCCCCCCCCCl [1-chlorododecane] | -9 °C |
| ClC(Cl)=C(c1ccc(Cl)cc1)c1ccc(Cl)cc1 [4,4'-DDE] | 89 °C |
| CC(=O)OCC(=O)c1ccccc1 [2-acetoxy_acetophenone] | 89 °C |
| C=CC(=O)OCC [Ethyl acrylate] | -71 °C |
| Nc1c([N+](=O)[O-])cccc1[N+](=O)[O-] [2,6-dinitroaniline] | 133 °C |
| OCCOc1ccccc1 [2-phenoxyethanol] | 12 °C |
